The source of these data is ChEMBL document CHEMBL1201862, “PubChem BioAssay data set” (2004).

Molecules are shown by their SMILES. Calls of active or inactive are those of the source. Some results are limits rather than exact numbers.

For assay [1], the target named is Induced myeloid leukemia cell differentiation protein Mcl-1 (Homo sapiens, UniProt Q07820). The format is functional.
The target in assay [2] is T1, Corticotropin-releasing factor receptor 2/Corticotropin-releasing factor-binding protein (Homo sapiens, UniProt P24387+Q13324).
T1 sequence (Q13324 whole entry): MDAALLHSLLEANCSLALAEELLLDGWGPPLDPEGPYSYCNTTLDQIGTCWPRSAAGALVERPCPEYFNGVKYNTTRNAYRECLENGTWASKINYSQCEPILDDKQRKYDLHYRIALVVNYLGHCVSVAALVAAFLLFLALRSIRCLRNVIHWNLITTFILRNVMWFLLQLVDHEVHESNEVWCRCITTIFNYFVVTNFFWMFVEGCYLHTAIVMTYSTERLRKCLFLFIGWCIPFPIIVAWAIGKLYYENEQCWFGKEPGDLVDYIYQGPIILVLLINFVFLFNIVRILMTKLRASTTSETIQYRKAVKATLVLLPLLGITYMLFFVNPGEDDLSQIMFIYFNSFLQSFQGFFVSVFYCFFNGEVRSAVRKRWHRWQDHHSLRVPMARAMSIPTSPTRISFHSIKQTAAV
T1 sequence (P24387 whole entry): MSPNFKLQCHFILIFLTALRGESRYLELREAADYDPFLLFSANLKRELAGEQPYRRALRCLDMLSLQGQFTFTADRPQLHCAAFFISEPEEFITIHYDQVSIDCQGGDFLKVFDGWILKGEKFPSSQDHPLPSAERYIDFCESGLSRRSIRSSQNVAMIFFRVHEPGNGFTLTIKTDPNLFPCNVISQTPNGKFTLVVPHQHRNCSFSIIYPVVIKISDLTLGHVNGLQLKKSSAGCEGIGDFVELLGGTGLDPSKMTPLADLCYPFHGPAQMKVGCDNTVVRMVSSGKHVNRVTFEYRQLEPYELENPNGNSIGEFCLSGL
Nature of the assay: Dose Response confirmation of uHTS hits for small molecule antagonists of the CRF-binding protein and CRF-R2 receptor complex. Format: functional. The settings on record: read-out: IC50_Mean.

Assay [3] deals with T1, Corticotropin-releasing factor receptor 2/Corticotropin-releasing factor-binding protein. Nature of the assay: activators of CRF receptor 2 with binding protein – uHTS hits, confirmation (AID 602473). The format is functional. The conditions noted are these: read-out: EC50_Mean.
Assay [4] has as its target T2, Sentrin-specific protease 1 (Homo sapiens, UniProt Q9P0U3).
T2 sequence (Q9P0U3 whole entry): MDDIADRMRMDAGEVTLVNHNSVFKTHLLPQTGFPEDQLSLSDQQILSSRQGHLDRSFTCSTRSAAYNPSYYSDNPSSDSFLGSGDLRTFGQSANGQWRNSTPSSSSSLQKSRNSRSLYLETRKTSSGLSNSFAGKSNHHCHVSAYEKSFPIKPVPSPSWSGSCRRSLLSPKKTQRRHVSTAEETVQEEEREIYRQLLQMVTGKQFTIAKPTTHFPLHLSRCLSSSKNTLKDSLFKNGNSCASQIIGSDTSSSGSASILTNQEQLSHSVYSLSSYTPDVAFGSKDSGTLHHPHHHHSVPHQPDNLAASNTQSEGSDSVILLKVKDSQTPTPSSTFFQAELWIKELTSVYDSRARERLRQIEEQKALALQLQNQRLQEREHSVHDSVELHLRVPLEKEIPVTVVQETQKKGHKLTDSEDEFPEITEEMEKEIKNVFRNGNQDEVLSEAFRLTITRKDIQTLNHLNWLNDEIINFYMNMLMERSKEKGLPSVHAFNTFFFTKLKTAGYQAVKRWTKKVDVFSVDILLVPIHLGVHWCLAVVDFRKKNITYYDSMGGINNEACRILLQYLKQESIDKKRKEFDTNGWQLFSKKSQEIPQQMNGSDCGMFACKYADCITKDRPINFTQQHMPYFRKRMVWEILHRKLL
Nature of the assay: Dose response confirmation of small molecule inhibitors of the catalytic domain of the SUMO protease, SENP1 in a FRET assay. The conditions noted are these: read-out: IC50_Mean. Format: functional.

Assay [5] addresses T2, Sentrin-specific protease 1. Nature of the assay: SENP1 catalytic domain blockers, concentration series – biochemical, kinetic FRET, dose response (AID 651697). Format: functional. The conditions noted are these: read-out: IC50_Mean.
Assay [6] in a line: antiviral protection against BTV-induced cell death – arbovirus, BSR cells, confirmation (AID 1250).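 Further: protection from viral cytopathic effect measured as cell viability by ATP luminescence.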 The format is functional.
For assay [7], the target named is Ion channel NompC (Danio rerio, UniProt Q7T1G6). Nature of the assay: Fluorescence counterscreen assay for TRPML3 agonists: dose response cell-based high-throughput screening assay to identify agonists of the transient receptor potential channel N1 (TRPN1). [Related pubchem assays: 1526, 1424, 1448 ]. The format is functional.
For assay [8], the target named is Mucolipin-3 (Homo sapiens, UniProt Q8TDD5). Nature of the assay: Dose response cell-based high-throughput screening assay for agonists of the transient receptor potential channel ML3 (TRPML3). [Related pubchem assays: 1526, 1424, 1448 ]. The format is functional.
Assay [9] has as its target T3, Bcl-2-like protein 10 (Homo sapiens, UniProt Q9HD36).
T3 sequence (Q9HD36 whole entry): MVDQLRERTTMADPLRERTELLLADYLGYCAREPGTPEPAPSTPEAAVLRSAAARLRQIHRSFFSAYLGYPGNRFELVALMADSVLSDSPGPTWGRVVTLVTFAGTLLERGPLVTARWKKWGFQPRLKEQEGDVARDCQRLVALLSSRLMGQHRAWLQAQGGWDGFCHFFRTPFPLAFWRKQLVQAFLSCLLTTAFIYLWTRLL
Nature of the assay: Concentration-response of Bcl-B inhibitors by biochemical FP with TR3 (AID 1243). Format: functional.

Assay [10] addresses T4, Aminopeptidase N (Plasmodium falciparum FcB1/Columbia, UniProt O96935).
T4 sequence (O96935 whole entry): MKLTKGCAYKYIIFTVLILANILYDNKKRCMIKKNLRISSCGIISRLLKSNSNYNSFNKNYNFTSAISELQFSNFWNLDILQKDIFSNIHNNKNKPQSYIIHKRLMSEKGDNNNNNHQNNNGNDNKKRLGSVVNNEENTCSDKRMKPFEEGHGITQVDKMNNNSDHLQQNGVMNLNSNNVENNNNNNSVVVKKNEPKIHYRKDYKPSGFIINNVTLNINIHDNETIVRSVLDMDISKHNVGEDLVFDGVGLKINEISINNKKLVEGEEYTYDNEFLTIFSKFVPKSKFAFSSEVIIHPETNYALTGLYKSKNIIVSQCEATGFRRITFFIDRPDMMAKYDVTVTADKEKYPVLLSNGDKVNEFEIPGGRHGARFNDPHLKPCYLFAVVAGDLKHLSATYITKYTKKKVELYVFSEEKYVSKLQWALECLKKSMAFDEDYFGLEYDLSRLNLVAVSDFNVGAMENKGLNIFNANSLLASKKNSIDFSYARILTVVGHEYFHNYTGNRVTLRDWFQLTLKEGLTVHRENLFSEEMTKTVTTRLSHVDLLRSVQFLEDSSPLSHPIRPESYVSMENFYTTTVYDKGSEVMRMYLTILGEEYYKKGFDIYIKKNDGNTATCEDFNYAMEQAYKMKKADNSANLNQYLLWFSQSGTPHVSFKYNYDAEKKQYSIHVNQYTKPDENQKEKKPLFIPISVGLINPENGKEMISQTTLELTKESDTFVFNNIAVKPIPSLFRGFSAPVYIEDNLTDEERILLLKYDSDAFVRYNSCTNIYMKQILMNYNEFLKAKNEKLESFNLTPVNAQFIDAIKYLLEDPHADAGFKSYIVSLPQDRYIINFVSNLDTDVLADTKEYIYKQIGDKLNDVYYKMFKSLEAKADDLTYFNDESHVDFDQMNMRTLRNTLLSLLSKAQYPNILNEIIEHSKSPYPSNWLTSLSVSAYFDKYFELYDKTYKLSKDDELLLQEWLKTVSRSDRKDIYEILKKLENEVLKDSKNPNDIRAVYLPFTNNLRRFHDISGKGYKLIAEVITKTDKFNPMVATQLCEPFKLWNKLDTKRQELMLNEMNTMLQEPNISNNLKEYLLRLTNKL
Nature of the assay: malaria alanyl aminopeptidase activity blockers – biochemical, fluorogenic H-Leu-NHMec substrate, 1536-well (AID 1445). Also noted: species or system Plasmodium falciparum 3D7, 3D7.

Assay [11] is described as follows: CCR5-tropic HIV-1 fusion blockers – cell-based, CCR5-tropic Env, dose response (AID 2279). The format is functional.
Assay [12] has as its target T5, Short transient receptor potential channel 4 (Mus musculus, UniProt Q9QUQ5).
T5 sequence (Q9QUQ5 whole entry): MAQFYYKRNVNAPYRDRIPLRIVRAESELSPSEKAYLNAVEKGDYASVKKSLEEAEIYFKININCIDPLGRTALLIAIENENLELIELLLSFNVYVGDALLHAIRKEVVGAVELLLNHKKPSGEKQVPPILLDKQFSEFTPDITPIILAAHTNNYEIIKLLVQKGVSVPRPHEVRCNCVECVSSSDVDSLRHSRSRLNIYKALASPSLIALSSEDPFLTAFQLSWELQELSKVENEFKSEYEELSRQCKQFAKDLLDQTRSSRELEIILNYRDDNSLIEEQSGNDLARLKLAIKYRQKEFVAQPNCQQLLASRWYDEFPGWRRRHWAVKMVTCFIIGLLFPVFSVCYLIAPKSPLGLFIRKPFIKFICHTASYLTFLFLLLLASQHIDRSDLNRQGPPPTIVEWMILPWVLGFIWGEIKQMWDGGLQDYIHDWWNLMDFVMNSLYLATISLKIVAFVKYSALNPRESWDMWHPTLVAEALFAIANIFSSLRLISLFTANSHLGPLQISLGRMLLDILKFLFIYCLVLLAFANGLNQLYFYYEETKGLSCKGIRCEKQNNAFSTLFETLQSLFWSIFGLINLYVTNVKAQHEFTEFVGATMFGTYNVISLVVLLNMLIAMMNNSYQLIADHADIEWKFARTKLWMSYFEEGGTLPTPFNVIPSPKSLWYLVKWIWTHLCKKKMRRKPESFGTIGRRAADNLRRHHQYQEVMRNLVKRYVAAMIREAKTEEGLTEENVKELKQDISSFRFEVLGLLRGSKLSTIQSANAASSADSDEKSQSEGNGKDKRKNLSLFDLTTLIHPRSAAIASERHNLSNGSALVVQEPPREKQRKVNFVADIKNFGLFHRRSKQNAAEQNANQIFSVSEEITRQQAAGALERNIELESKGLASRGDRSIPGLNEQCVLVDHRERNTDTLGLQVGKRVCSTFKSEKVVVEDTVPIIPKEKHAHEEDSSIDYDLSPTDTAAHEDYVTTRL
Nature of the assay: block of DAMGO-driven TRPC4 calcium entry – cell-based, HEK293 TRPC4/mu-opioid, Fluo-4 calcium, dose response (AID 434942).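 Further: potency of inhibitors blocking the TRPC4 calcium response.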 The format is functional.

A short description of assay [13]: A Cell Based Secondary Assay To Explore Cytotoxicity of Compounds that Sensitize Mycobacterium Tuberculosis to Beta-Lactam Antibiotics. The format is functional.
For assay [14], the target named is NS3 (Hepatitis C virus, UniProt A3EZJ3). Nature of the assay: PubChem AID 2173. Also noted: species or system Hepacivirus hominis.
The target in assay [15] is T6, fMet-Leu-Phe receptor (Homo sapiens, UniProt P21462).
T6 sequence (P21462 whole entry): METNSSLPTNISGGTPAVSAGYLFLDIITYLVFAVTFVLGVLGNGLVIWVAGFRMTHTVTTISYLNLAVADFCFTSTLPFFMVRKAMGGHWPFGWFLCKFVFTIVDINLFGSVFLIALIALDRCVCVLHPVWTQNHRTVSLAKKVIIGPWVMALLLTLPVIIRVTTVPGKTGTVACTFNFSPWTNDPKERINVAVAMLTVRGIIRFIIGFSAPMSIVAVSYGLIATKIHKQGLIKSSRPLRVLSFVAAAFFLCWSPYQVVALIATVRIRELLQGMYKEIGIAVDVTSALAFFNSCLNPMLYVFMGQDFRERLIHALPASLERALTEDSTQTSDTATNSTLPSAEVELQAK
Nature of the assay: formyl peptide receptor binders – dose response (AID 519). Format: functional.

In assay [16] the test system is HeLa. Nature of the assay: Cytotoxicity counterscreen assay for transcriptional activators of heat shock protein 70 (Hsp70). [Related pubchem assays: 1203, 1252 ]. The format is functional. The conditions noted are these: Homo sapiens.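 Further: cells exposed to compound for 16 hours before readout.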

Sequence of Induced myeloid leukemia cell differentiation protein Mcl-1 (Q07820 whole entry): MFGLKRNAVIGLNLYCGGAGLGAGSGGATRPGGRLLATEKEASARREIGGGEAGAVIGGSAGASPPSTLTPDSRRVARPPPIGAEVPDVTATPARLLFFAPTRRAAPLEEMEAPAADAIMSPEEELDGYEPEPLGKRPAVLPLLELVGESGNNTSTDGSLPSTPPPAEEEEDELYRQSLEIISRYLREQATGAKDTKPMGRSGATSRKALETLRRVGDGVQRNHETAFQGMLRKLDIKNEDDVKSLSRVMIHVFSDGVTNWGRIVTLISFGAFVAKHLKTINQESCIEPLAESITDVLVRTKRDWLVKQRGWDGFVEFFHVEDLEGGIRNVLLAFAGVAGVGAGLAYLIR
Sequence of Mucolipin-3 (Q8TDD5 whole entry): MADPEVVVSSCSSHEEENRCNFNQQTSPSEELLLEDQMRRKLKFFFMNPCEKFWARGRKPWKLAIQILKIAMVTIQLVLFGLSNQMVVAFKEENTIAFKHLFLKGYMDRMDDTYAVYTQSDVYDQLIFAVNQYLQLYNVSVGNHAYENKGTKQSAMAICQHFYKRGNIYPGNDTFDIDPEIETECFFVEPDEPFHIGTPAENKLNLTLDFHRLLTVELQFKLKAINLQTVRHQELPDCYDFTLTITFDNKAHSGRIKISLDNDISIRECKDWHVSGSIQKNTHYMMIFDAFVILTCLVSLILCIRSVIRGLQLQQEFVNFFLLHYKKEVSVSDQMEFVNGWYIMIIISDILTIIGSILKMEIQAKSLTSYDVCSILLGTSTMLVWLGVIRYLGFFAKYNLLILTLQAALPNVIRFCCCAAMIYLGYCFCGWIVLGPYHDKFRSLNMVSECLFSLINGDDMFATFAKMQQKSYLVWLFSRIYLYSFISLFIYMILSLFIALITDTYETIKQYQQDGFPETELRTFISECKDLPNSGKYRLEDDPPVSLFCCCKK
Sequence of NS3 (A3EZJ3 whole entry): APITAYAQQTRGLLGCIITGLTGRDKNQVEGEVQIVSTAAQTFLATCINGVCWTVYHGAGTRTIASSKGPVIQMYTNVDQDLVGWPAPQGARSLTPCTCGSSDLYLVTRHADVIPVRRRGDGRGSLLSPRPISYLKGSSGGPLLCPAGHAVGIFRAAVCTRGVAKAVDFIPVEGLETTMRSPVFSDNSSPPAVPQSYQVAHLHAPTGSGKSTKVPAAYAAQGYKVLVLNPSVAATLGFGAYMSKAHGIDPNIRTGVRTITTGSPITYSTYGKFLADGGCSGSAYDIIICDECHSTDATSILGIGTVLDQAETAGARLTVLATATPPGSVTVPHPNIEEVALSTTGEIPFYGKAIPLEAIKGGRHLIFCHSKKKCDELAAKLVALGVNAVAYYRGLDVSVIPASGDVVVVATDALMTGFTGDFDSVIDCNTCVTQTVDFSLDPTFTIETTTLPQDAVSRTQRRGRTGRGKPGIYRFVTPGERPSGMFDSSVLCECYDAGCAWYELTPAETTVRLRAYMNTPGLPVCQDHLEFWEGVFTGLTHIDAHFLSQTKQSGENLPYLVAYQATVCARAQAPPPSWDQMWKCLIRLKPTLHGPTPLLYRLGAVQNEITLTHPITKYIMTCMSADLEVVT
Sequence of Ion channel NompC (Q7T1G6 whole entry): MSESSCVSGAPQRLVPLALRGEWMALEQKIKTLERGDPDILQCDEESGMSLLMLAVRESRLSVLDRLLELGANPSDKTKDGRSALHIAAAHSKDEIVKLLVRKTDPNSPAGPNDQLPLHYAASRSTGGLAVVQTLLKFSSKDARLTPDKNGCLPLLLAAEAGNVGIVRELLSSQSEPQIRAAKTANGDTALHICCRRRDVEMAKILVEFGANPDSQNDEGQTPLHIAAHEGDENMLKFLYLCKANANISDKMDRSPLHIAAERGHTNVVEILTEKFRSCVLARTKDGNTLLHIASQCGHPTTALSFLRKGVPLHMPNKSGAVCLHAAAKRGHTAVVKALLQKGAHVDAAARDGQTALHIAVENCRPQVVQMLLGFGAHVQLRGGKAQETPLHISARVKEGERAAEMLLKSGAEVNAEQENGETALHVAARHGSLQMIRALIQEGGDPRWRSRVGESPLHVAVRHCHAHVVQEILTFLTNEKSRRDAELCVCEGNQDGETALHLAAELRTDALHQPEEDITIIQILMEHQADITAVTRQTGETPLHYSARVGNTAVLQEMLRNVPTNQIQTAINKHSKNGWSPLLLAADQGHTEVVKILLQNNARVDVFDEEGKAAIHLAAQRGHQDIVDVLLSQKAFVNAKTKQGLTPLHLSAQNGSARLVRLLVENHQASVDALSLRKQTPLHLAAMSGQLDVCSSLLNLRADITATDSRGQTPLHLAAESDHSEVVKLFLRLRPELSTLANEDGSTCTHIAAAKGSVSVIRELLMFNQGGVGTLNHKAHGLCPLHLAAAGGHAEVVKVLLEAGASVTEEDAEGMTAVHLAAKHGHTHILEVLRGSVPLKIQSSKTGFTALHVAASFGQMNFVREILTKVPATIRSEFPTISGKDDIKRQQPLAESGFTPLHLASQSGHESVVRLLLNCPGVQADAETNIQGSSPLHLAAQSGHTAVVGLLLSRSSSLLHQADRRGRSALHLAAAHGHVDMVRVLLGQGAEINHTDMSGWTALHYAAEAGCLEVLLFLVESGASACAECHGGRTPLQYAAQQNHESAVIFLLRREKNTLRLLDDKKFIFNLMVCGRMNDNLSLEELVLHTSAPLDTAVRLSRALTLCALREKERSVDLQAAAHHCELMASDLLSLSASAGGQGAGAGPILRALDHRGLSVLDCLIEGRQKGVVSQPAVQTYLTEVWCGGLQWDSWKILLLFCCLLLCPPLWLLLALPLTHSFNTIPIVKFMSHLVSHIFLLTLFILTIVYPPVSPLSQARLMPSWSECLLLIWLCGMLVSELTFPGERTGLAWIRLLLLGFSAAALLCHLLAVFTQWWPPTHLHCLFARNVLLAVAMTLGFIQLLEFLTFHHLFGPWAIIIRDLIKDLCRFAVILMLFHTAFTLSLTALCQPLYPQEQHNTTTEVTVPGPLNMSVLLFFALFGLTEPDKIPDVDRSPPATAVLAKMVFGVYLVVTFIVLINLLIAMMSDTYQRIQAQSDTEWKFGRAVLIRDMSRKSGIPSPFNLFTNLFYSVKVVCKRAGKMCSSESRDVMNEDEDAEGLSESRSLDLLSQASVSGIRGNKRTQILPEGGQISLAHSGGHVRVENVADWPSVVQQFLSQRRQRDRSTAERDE

Turning to `COc1ccccc1C1C2=C(N=c3s/c(=C/c4cccc(OCC(=O)O)c4)c(=O)n31)c1ccccc1CC2` (stereo not drawn), the IC50 in assay [1] was 2.51 µM (active); in assay [2], > 47.1 µM (inactive); in [4] it was 25.4 µM (inactive); in assay [5], 18.9 µM (active); in assay [6], 21.3 µM (active). The EC50 in assay [3] is > 53 µM (inactive).
On to `Cc1cc(C)cc(N2C(=O)CSC2c2cccs2)c1` (stereo not drawn), for which the figures for the EC50 in [7], in assay [3] and in assay [8] were > 29.9 µM (not active), > 53 µM (inactive) and > 29.9 µM (not active), respectively.
For `COC(=O)C1=C(C)N(C)C(=O)NC1c1cc2c(cc1[N+](=O)[O-])OCO2` (stereo not drawn), the EC50 in assay [9] is 17.4 µM (active).
As for `COc1cc(/C=C2\SC(=O)N(c3ccccc3Cl)C2=O)cc([N+](=O)[O-])c1O`, the IC50 in [10] is 65.8 µM (active); in assay [11], 42.5 µM (active). Moreover, in [12], the EC50 was 1.06 µM (active).
In the case of `O=C1/C(=C/c2ccncc2)CCc2ccccc21`, the half-maximal cytotoxic concentration (CC50) in [13] was 35.4 µM (active).
Take `CCOc1ccc(C(=O)C2=C(O)C(=O)N(c3nc(C)c(C)s3)C2c2ccco2)cc1` (stereo not drawn): the IC50 in assay [14] was 6.35 µM (active). Further, the Ki in [15] is 57.7 µM (inactive).
With `COC(=O)Nc1ccc(S(=O)(=O)NCc2ccccn2)cc1`, the IC50 in assay [1] is on record as 6.18 µM (not active). Moreover, the CC50 in assay [16] is > 99 µM (not active).
